This note sets out measurements from US7547783B2, “Transition metal complexes” (Shell Oil Company, priority 2004, dated 2009).

Bounds are passed on as bounds.

One data set in a line: practical solubility of the transition metal complexes at ambient temperature.
Settings: not given
The method, then: The practical solubility of the transition metal complexes was determined at ambient temperature in the inert atmosphere of the dry box.
1 mg of solid complex was contacted with 0.5 ml of benzene-D6 in an NMR-tube (5 mm external diameter) and gently swirled.
`CCCCCCCCCCCCCCCCCCCCOc1cc(C)c([N+]2=C(C)c3cccc4[n+]3[Fe]2([Cl])([Cl])[N+](c2cc(C(C)C)c(OCCCCCCCCCCCCCCCCCCCC)cc2C)=C4C)cc1C(C)C` [Example 12, 2,6-bis[1-(2-methyl-4-eicosanoxy-5-isopropylphenylimino)ethyl]pyridine iron (II) dichloride]: the “solubility in C6D6 (in words)” value was “soluble”.
Consider `CCCCCCCCCCCCCCCCCCCCOc1c(-c2ccccc2)cc(N=C(C)c2cccc(C(C)=Nc3cc(-c4ccccc4)c(OCCCCCCCCCCCCCCCCCCCC)c(-c4ccccc4)c3)n2)cc1-c1ccccc1.[Cl-].[Cl-].[Cl-].[Cr+3]` [Example 9, 2,6-bis[1-(4-eicosanoxy-3,5-diphenylphenylimino)ethyl]pyridine chromium[III] trichloride complex], for which the “solubility in toluene or benzene-D6” value was “ca. 50 mg/ml”.

The data set is the same for the next values; noted with them: 20 °C, organic solvent or mixture, thermodynamic from solid.
A word on the solubility: it is how much of the substance goes into solution per volume. With `CC1=[N+](c2cc(-c3ccccc3)c(O)c(-c3ccccc3)c2)[Fe]2([Cl])([Cl])[N+](c3c(C)cc(C)cc3C)=C(C)c3cccc1[n+]32` [Example 14, 2-[1-(2,4,6-trimethylphenylimino)ethyl]-6-[1-(4-hydroxy-3,5-diphenylphenylimino)ethyl]pyridine iron (II) dichloride, reference compound], the solubility at 24 h was below 1 mg/mL.
Consider `CCCCCCCCCCCCCCCCCCCCOc1c(-c2ccccc2)cc([N+]2=C(C)c3cccc4[n+]3[Co]2([Cl])([Cl])[N+](c2ccccc2C(C)(C)C)=C4C)cc1-c1ccccc1` [Example 10, 2-[1-(2-tert-butylphenylimino)ethyl]-6-[1-(4-eicosanoxy-3,5-diphenylphenylimino)ethyl]pyridine cobalt[II] chloride complex], for which the solubility at 24 h is around 50 mg/mL.
Same read-out and setting: as for `CCCCCCCCCCCCCCCCCCCCOc1cc(C)c([N+]2=C(C)c3cccc4[n+]3[Fe]2([Cl])([Cl])[N+](c2cc(C(C)C)c(OCCCCCCCCCCCCCCCCCCCC)cc2C)=C4C)cc1C(C)C` [Example 12, 2,6-bis[1-(2-methyl-4-eicosanoxy-5-isopropylphenylimino)ethyl]pyridine iron (II) dichloride], the figure is around 10 mg/mL; as for `CC1=[N+](c2cc(C(C)(C)C)cc(C(C)(C)C)c2)[Fe]2([Cl])([Cl])[N+](c3c(C)cc(C)cc3C)=C(C)c3cccc1[n+]32` [Example 2, 2-[1-(2,4,6-trimethylphenylimino)ethyl]-6-[1-(3,5-di-tert-butylphenylimino)ethyl]pyridine iron[II] chloride complex, reference compound], below 1 mg/mL.
On to `CCCOc1c(-c2ccccc2)cc([N+]2=C(C)c3cccc4[n+]3[Co]2([Cl])([Cl])[N+](c2c(C)cc(C)cc2C)=C4C)cc1-c1ccccc1` [Example 13, 2-[1-(2,4,6-trimethylphenylimino)ethyl]-6-[1-(4-propoxy-3,5-diphenylphenylimino)ethyl]pyridine cobalt[II] chloride complex, reference compound], for which the solubility at 24 h is below 1 mg/mL.
The same measure, in the same setting: as for `CCCCCCCCCCCCCCCCCCCCOc1c(-c2ccccc2)cc([N+]2=C(C)c3cccc4[n+]3[Fe]2([Cl])([Cl])[N+](c2cc(-c3ccccc3)c(OCCCCCCCCCCCCCCCCCCCC)c(-c3ccccc3)c2)=C4C)cc1-c1ccccc1` [Example 7, 2,6-bis[1-(4-eicosanoxy-3,5-diphenylphenylimino)ethyl]pyridine iron [II] dichloride complex], the figure is around 100 mg/mL; as for `CCCCCCCCCCCCCCCCCCCCOc1c(-c2ccccc2)cc([N+]2=C(C)c3cccc4[n+]3[Co]2([Cl])([Cl])[N+](c2c(C)cc(C)cc2C)=C4C)cc1-c1ccccc1` [Example 4, 2-[1-(2,4,6-trimethylphenylimino)ethyl]-6-[1-(4-eicosanoxy-3,5-diphenylphenylimino)ethyl]pyridine cobalt[II] dichloride complex], 50 mg/mL; as for `CCCCCCCCCCCCCCCCCCCCOc1c(-c2ccccc2)cc([N+]2=C(C)c3cccc4[n+]3[Co]2([Cl])([Cl])[N+](c2cc(-c3ccccc3)c(OCCCCCCCCCCCCCCCCCCCC)c(-c3ccccc3)c2)=C4C)cc1-c1ccccc1` [Example 8, 2,6-bis[1-(4-eicosanoxy-3,5-diphenylphenylimino)ethyl]pyridine cobalt[II] dichloride complex], around 100 mg/mL.
Same read-out and setting: to `CCCCCCCCCCCCCCCCCCCCOc1ccc([N+]2=C(C)c3cccc4[n+]3[Fe]2([Cl])([Cl])[N+](c2ccc(OCCCCCCCCCCCCCCCCCCCC)cc2C)=C4C)c(C)c1` [Example 11, 2,6-bis[1-(4-eicosanoxy-2-methylphenylimino)ethyl]pyridine iron[II] chloride complex, reference compound] belongs below 1 mg/mL; to `CCCCCCCCCCCCCCCCCCCCOc1c(-c2ccccc2)cc([N+]2=C(C)c3cccc4[n+]3[Fe]2([Cl])([Cl])[N+](c2c(C)cc(C)cc2C)=C4C)cc1-c1ccccc1` [Example 3, 2-[1-(2,4,6-trimethylphenylimino)ethyl]-6-[1-(4-eicosanoxy-3,5-diphenylphenylimino)ethyl]pyridine iron[II] dichloride complex], around 50 mg/mL.

The data set is the same for the next values; noted with them: at 20° C.
In the case of `CCCCCCCCCCCCCCCCCCCCOc1c(-c2ccccc2)cc(N=C(C)c2cccc(C(C)=Nc3c(C)cc(C)cc3C)n2)cc1-c1ccccc1.[Cl-].[Cl-].[Cl-].[Cr+3]` [Example 6, 2-[1-(2,4,6-trimethylphenylimino)ethyl]-6-[1-(4-eicosanoxy-3,5-diphenylphenylimino)ethyl]pyridine chromium[III] trichloride complex], the “solubility in toluene or benzene-D6” value is listed as “ca. 1 mg/ml”.
With `CCCCCCCCCCCCCCCCCCCCOc1c(-c2ccccc2)cc(N=C(C)c2cccc(C(C)=Nc3c(C)cc(C)cc3C)n2)cc1-c1ccccc1.FC(F)(F)c1cc([B-](c2cc(C(F)(F)F)cc(C(F)(F)F)c2)(c2cc(C(F)(F)F)cc(C(F)(F)F)c2)c2cc(C(F)(F)F)cc(C(F)(F)F)c2)cc(C(F)(F)F)c1.[Cl][Co+]` [Example 5, 2-[1-(2,4,6-trimethylphenylimino)ethyl]-6-[1-(4-eicosanoxy-3,5-diphenylphenylimino)ethyl]pyridine cobalt[II] chloride tetrakis[3,5-bis[trifluoromethyl)phenyl]borate], the “solubility in toluene or benzene-D6” value was “ca. 10 mg/ml”.
